Experimental data as given in patent US20230097009A1, “USE OF COMPOUND IN PREVENTION AND/OR TREATMENT OF PATHOGEN INFECTION IN ANIMALS” (FELICAMED BIOTECHNOLOGY CO., LTD., priority 2020, published 2023).

Legend:
feline coronavirus = test: Treatment of a cat with recurrent wet FIP (Example 1): daily clinical observation, body weight, chest X-ray; assay type: in vivo; conditions: for body weight: 2.5 kg at enrollment (D0)
Protocol: A female British shorthair cat (Lele) of 2.5 kg, aged 8 month, unneutered. The cat had symptoms of increased body temperature, mental depression, decreased appetite, and increased abdominal girth in January, 2020. After 1 week, the cat was admitted. On January 18, the cat was diagnosed with feline infectious peritonitis (FIP) positive. After being treated with GS-441524 for 3 days, the cat was then administered with furosemide, Synulox®, prednisolone and itraconazole (P.O., q24h, 10 mg/kg) for 1 month. The drugs were discontinued after ascites regressed. Early in April, the disease recurred, showing decreased food intake and listlessness. […] The cat was enrolled on April 8, and was treated with the drug of the present invention at 2.0 mg/kg (SC, q24h) on days 1-14 (D1-14). Proper supportive treatments were given at the same time, including adjuvant treatment such as Moringa (a hepatoprotective drug), Lysinphirst (lysine) and Doctor Dolittle® (lactoferrin).
The pharmaceutically active compound described above is a pure powder have the following structure. The compound was added to a 0.9% normal saline (50 mL of endotoxin-free water and 0.45 g of NaCl), and the mixture was uniformly mixed and filtered through a filter membrane to give a clarified solution. The diluted compound was stored in a plastic-sealed sterile vial, stored in a refrigerator at 4° C., slowly heated to room temperature before injection, and administered using a disposable syringe. The injection ranged across the back, starting from 2 cm posterior to the scapula to the middle of the lumbar spine, half of the distance of the adjacent chest to flank.
The treatment was given by injection in the morning every day. […]
The hydrothorax completely regressed since about 7 days after the treatment. The body weight increased by 9% during and after the treatment.

[1] = tested on: feline infectious peritonitis virus; test: Clinical survival of cats with clinically confirmed FIP, treatment group vs control group (Example 2); assay type: in vivo, cat; conditions: 7 treated vs 8 control cats with FIP; GS-441524 pre-treatment 3 days; 2.0 mg/kg SC q24h D1-D14; death or neurological symptoms = clinical death; 14 days
Source text: A total of 15 cats with clinically confirmed FIP were enrolled, with hydrothorax/ascites, positive CT value by PCR, and no neurological symptoms. 8 cats were allocated into the control group, and 7 cats were allocated into the treatment group.
The groups were pre-treated with GS-441524 for 3 days. For the control group, necessary supportive treatment was given on D1—D14.
The occurrence of death or neurological symptoms was judged as clinical death, and the clinical survival curve was plotted after 14 days.
The Log Rank (Mantel-Cox) and Breslow (Generalized Wilcoxon) methods were used for validity test, and both methods indicated a significant difference (P<0.05). The above description is only for the purpose of illustrating the preferred example of the present invention, and is not intended to limit the scope of the present invention. Any modifications, equivalents and the like made without departing from the spirit and principle of the present invention should be included in the protection scope of the present invention.

[2] = D1, cat with FIP, 2.0 mg/kg SC q24h
[3] = D2, cat with FIP, 2.0 mg/kg SC q24h
[4] = D3, cat with FIP, 2.0 mg/kg SC q24h
[5] = D4, cat with FIP, 2.0 mg/kg SC q24h
[6] = D5, cat with FIP, 2.0 mg/kg SC q24h
[7] = D6, cat with FIP, 2.0 mg/kg SC q24h
[8] = D7, cat with FIP, 2.0 mg/kg SC q24h
[9] = D8, cat with FIP, 2.0 mg/kg SC q24h
[10] = D9, cat with FIP, 2.0 mg/kg SC q24h
[11] = D10, cat with FIP, 2.0 mg/kg SC q24h
[12] = D11, cat with FIP, 2.0 mg/kg SC q24h
[13] = D12, cat with FIP, 2.0 mg/kg SC q24h
[14] = D13, cat with FIP, 2.0 mg/kg SC q24h
[15] = D14, cat with FIP, 2.0 mg/kg SC q24h

CN1CCC(c2ncc(-c3cnc(N)c(OCc4cccc(C#CC(C)(C)O)c4)c3)s2)CC1 [the drug of the present invention, 4-(3-(((2-amino-5-(2-(1-methylpiperidin-4-yl)thiazol-5-yl)pyridin-3-yl)oxy)methyl)phenyl)-2-methylbut-3-yn-2-ol]
38 °C: Body temperature Afternoon (feline coronavirus; [4]) | Body temperature Afternoon (feline coronavirus; [9])
38-38.5 °C: body temperature maintained throughout the treatment (feline coronavirus; cat with FIP, no fever at enrollment, 2.0 mg/kg SC q24h D1-14)
38.6 °C: Body temperature Afternoon (feline coronavirus; [2])
38.1 °C: Body temperature Afternoon (feline coronavirus; [3]) | Body temperature Afternoon (feline coronavirus; [8])
38.2 °C: Body temperature Afternoon (feline coronavirus; [10])
Good - 5: Food intake (feline coronavirus; D3, cat with FIP, 2.0 mg/kg SC q24h, D0 Decreased intake - 3) | Mental state (feline coronavirus; D3, cat with FIP, 2.0 mg/kg SC q24h, D0 Listless - 3)
Normal: Defecation condition (feline coronavirus; [2]) | Respiratory state (feline coronavirus; [2]) | Defecation condition (feline coronavirus; [3]) | Respiratory state (feline coronavirus; [3]) | Defecation condition (feline coronavirus; [4]) | Respiratory state (feline coronavirus; [4]) | Defecation condition (feline coronavirus; [5]) | Respiratory state (feline coronavirus; [5]) | Defecation condition (feline coronavirus; [6]) | Respiratory state (feline coronavirus; [6]) | Defecation condition (feline coronavirus; [7]) | Respiratory state (feline coronavirus; [7]) | Defecation condition (feline coronavirus; [8]) | Respiratory state (feline coronavirus; [8]) | Defecation condition (feline coronavirus; [9]) | Respiratory state (feline coronavirus; [9]) | Defecation condition (feline coronavirus; [10]) | Respiratory state (feline coronavirus; [10]) | Defecation condition (feline coronavirus; [11]) | Respiratory state (feline coronavirus; [11]) | Defecation condition (feline coronavirus; [12]) | Respiratory state (feline coronavirus; [12]) | Defecation condition (feline coronavirus; [13]) | Respiratory state (feline coronavirus; [13]) | Defecation condition (feline coronavirus; [14]) | Respiratory state (feline coronavirus; [14]) | Defecation condition (feline coronavirus; [15]) | Respiratory state (feline coronavirus; [15])
38.3 °C: Body temperature Afternoon (feline coronavirus; [5]) | Body temperature Afternoon (feline coronavirus; [6]) | Body temperature Afternoon (feline coronavirus; [7]) | Body temperature Afternoon (feline coronavirus; [11])
Good: Food intake (feline coronavirus; [5]) | Mental state (feline coronavirus; [5]) | Food intake (feline coronavirus; [6]) | Mental state (feline coronavirus; [6]) | Food intake (feline coronavirus; [7]) | Mental state (feline coronavirus; [7]) | Food intake (feline coronavirus; [8]) | Mental state (feline coronavirus; [8]) | Food intake (feline coronavirus; [9]) | Mental state (feline coronavirus; [9]) | Food intake (feline coronavirus; [10]) | Mental state (feline coronavirus; [10]) | Food intake (feline coronavirus; [11]) | Mental state (feline coronavirus; [11]) | Food intake (feline coronavirus; [12]) | Mental state (feline coronavirus; [12]) | Food intake (feline coronavirus; [13]) | Mental state (feline coronavirus; [13]) | Food intake (feline coronavirus; [14]) | Mental state (feline coronavirus; [14]) | Food intake (feline coronavirus; [15]) | Mental state (feline coronavirus; [15])
about 7 days: time after which the hydrothorax completely regressed (feline coronavirus; cat with wet FIP (chest), 2.0 mg/kg SC q24h, chest X-ray)
2.75 kg: body weight (feline coronavirus; [8]) | body weight (feline coronavirus; [15])
< 0.05: clinical survival vs control group, P (Log Rank (Mantel-Cox) and Breslow (Generalized Wilcoxon)) [1]
38.9 °C: Body temperature Morning (feline coronavirus; [14])
38.5 °C: Body temperature Afternoon (feline coronavirus; [13]) | Body temperature Afternoon (feline coronavirus; [14])
38.4 °C: Body temperature Afternoon (feline coronavirus; [12]) | Body temperature Afternoon (feline coronavirus; [15]) | Body temperature Morning (feline coronavirus; [15])
Improved - 4: Food intake (feline coronavirus; D2, cat with FIP, 2.0 mg/kg SC q24h, D0 Decreased intake - 3) | Mental state (feline coronavirus; D2, cat with FIP, 2.0 mg/kg SC q24h, D0 Listless - 3)
9%: body weight increase during and after the treatment (feline coronavirus; cat with FIP, 2.0 mg/kg SC q24h D1-14)
remarkable clinical response: clinical response (appetite, mental state, weight) (feline coronavirus; after 2 weeks of treatment, cat with FIP, 2.0 mg/kg SC q24h)
